Laboratory results as given in patent US12338220B2, “Antiviral pyrazolopiridinone compounds” (Novartis AG, priority 2019, dated 2025).
Where two headings read alike, the source gives them in different places.

Tests used:
[1] = test system: EBV (SNU-719 cells latently infected); assay: EBV qPCR assay; conditions: human gammaherpesvirus 4, 72 h, read-out: Cellular activity against EBV (EC50)
[2] = test system: KOS strain of HSV-1 virus; assay: HSV-1 qPCR assay; conditions: Human alphaherpesvirus 1, 24 h
CMV-polymerase = CMV-polymerase (Human cytomegalovirus (strain AD169) (HHV-5) (Human herpesvirus 5), UniProt P08546); assay: biochemical
CMV = assay: microbe, parasite or virus in culture; format: cell-based
VZV Ellen strain = assay: VZV qPCR assay; conditions: Human alphaherpesvirus 3, MRC5, 48 h, read-out: Cellular activity against VZV (EC50)
HSV-polymerase = HSV-polymerase (Human herpesvirus 1 (strain 17) (HHV-1) (Human herpes simplex virus 1), UniProt P04293); assay: biochemical
[3] = read-out: Cellular activity against HSV-1 (EC50), NN-NHDF cells, MOI 0.01, 24 hrs, qPCR
[4] = Human betaherpesvirus 5, 72 h, read-out: CMV-Luc Cellular EC50, NN-NHDF cells, MOI 1, 72 hrs
[5] = Human betaherpesvirus 5, read-out: Cellular activity against CMV (EC50), Table 18
[6] = read-out: CMV-polymerase Biochemical IC50
[7] = read-out: Cellular activity against HSV-1 (EC50)

| Compound | EC50 [1] [nM] | EC50 [2, 3] [nM] | IC50 (CMV-polymerase; CMV-polymerase Biochemical IC50) [nM] | EC50 (CMV; [4]) [nM] | EC50 (CMV; [5]) [nM] | EC50 (VZV Ellen strain) [nM] | IC50 (HSV-polymerase) [nM] | IC50 (CMV-polymerase; [6]) [nM] | EC50 [2, 7] [nM] |
| --- | --- | --- | --- | --- | --- | --- | --- | --- | --- |
| Cn1nc(C(=O)NCc2ccc(Cl)cc2)c2c1C(=O)N(CC1(S(=O)(=O)C(C)(CO)CO)CC1)CC2 [Example 175, N-(4-chlorobenzyl)-6-((1-((1,3-dihydroxy-2-methylpropan-2-yl)sulfonyl)cyclopropyl)methyl)-1-methyl-7-oxo-4,5,6,7-tetrahydro-1H-pyrazolo[3,4-c]pyridine-3-carboxamide] | 8 | 58 | 3 | 26 | 26 | 34 | – | – | – |
| Cn1nc(C(=O)NCc2ccc(C#N)cc2)c2c1C(=O)N(CC1(S(=O)(=O)C(C)(CO)CO)CC1)CC2 [Example 176, N-(4-Cyanobenzyl)-6-((1-((1,3-dihydroxy-2-methylpropan-2-yl)sulfonyl)cyclopropyl)methyl)-1-methyl-7-oxo-4,5,6,7-tetrahydro-1H-pyrazolo[3,4-c]pyridine-3-carboxamide] | 14 | 95 | – | 52 | 52 | 74 | 39 | 2 | – |
| Cn1nc(C(=O)NCc2ccc(C#N)cc2)c2c1C(=O)N(CC1(S(=O)(=O)C(C)(C)[C@H](O)CO)CC1)CC2 [Example 193, (R)-N-(4-Cyanobenzyl)-6-((1-((3,4-dihydroxy-2-methylbutan-2-yl)sulfonyl)cyclopropyl)methyl)-1-methyl-7-oxo-4,5,6,7-tetrahydro-1H-pyrazolo[3,4-c]pyridine-3-carboxamide] | 8 | 58 | – | – | 26 | 34 | – | 1 | – |
| Cn1nc(C(=O)NCc2ccc(C#N)cc2)c2c1C(=O)N(CC1(S(=O)(=O)C(C)(C)[C@H](O)CN)CC1)CC2 [Example 198, (R)-6-((1-((4-amino-3-hydroxy-2-methylbutan-2-yl)sulfonyl)cyclopropyl)methyl)-N-(4-cyanobenzyl)-1-methyl-7-oxo-4,5,6,7-tetrahydro-1H-pyrazolo[3,4-c]pyridine-3-carboxamide] | 4 | – | – | 18 | 22 | 39 | – | – | 50 |
| N#Cc1ccc(CNC(=O)c2nn(CCO)c3c2CCN(CC2(S(=O)(=O)C4CC4)CC2)C3=O)cc1 [Example 216, N-(4-cyanobenzyl)-6-((1-(cyclopropylsulfonyl)cyclopropyl)methyl)-1-(2-hydroxyethyl)-7-oxo-4,5,6,7-tetrahydro-1H-pyrazolo[3,4-c]pyridine-3-carboxamide] | 28 | – | – | 67 | 67 | 109 | – | 2 | 112 |
| CC(C)(O)Cn1nc(C(=O)NCc2ccc(C#N)cc2)c2c1C(=O)N(CC1(S(=O)(=O)C3(CO)CC3)CC1)CC2 [Example 234, N-(4-Cyanobenzyl)-1-(2-hydroxy-2-methylpropyl)-6-((1-((1-(hydroxymethyl)cyclopropyl)sulfonyl)cyclopropyl)methyl)-7-oxo-4,5,6,7-tetrahydro-1H-pyrazolo[3,4-c]pyridine-3-carboxamide] | 11 | 83 | – | 49 | 49 | 115 | – | 1 | – |
